Data: patent US7507281B2, “Antimicrobial cementitious composition, method and article” (Microban Products Company, priority 2005, dated 2009)

Assays:
K. pneumoniae = assay: Zone of inhibition of fresh cured BAL grout discs, K. pneumoniae (Example 1); format: cell-based; conditions: Klebsiella pneumoniae
Aspergillus niger = assay: AATCC 30 Part III antifungal test of grout discs after QUV/Xenon exposure and water-spray neutralization (Example 2); format: cell-based; conditions: for Growth A. niger: weathered and pH-neutralized, 168-hour incubation, sulfate
Description: Grout samples were prepared and cured as in Example 1, with antimicrobial agent admixed into the dry compound at levels of 0 ppm, 1000 ppm, and 2000 ppm based upon the total weight of the dry mix and antimicrobial agent (excluding water). Water was added, the slurry mixed, and 1.5-inch diameter pucks cast.
After air-curing, the samples were exposed for eight hours in either of QUV/Spray Accelerated Weathering Controller or Xenon Testing Chamber Xe-3HS (both by Q-Panel Lab Products, Cleveland, Ohio). The QUV exposure is an assay well known in the art for simulating aging, discoloration and/or degradation caused by conditions of ultraviolet radiation exposure, such as would be encountered in an outdoor application.
Thereafter, the sample discs were subjected to one hour of water spray, followed by one hour of condensation, alternatingly repeated for a total of eight hours. This treatment neutralizes the pH of the grout samples, simulating brief real-world exposure of the grout articles to, e.g., a shower stall application.
Samples then were plated against Aspergillus niger using the 30 Part III test. At the end of the 168-hour incubation period, the test plates were removed from the test chamber and the samples were evaluated for fungal attack and encroachment. The antimicrobial agent tested and the results of the evaluation are shown in Table 2; control and experimental plates are shown in FIGS. 1-3.

S. aureus = assay: Zone of inhibition of fresh cured BAL grout discs, S. aureus (Example 1); format: cell-based; conditions: Staphylococcus aureus
Thermal stability = format: physicochemical
Description: This species also appears to be thermally stable up to 160° C. and above. Thermal stability makes imazalil agent especially well-suited for inclusion in the production of cementitious powder by various manufacturers, as these powders are typically dried and packed at elevated temperatures. Many other antimicrobial/antifungal agents tend to discolor and clump when so thermally exposed.

[1] = UV stability / discoloration under ultraviolet irradiation; format: physicochemical; conditions: UVA 340 lamps, 168 hrs
Text: Resistance to ultraviolet radiation and discoloring is advantageous given the typical outdoor environment of cured cementitious articles.

[2] = 1000 ppm imazalil sulfate in BAL grout disc, fresh cured
[3] = 2000 ppm imazalil sulfate in BAL grout disc, fresh cured

Row | SMILES | zone of inhibition at 500 ppm (K. pneumoniae; BAL, read-out: Zone of Inhibition, mm K. pneumoniae) [mm] | zone of inhibition at 1000 ppm (K. pneumoniae; [2]) [mm] | zone of inhibition at 2000 ppm (K. pneumoniae; [3]) [mm] | Growth A. niger (Aspergillus niger; 1000 ppm imazalil sulfate in grout disc) | Growth A. niger (Aspergillus niger; 2000 ppm imazalil sulfate in grout disc) | zone of inhibition at 500 ppm (S. aureus; BAL, read-out: Zone of Inhibition, mm S. aureus) [mm] | zone of inhibition at 1000 ppm (S. aureus; [2]) [mm] | zone of inhibition at 2000 ppm (S. aureus; [3]) [mm] | Thermally stable up to (Thermal stability) [°C] | Discoloration after prolonged exposure to ultraviolet irradiation [1] | Resistance of grout puck to fungal attack (FIG. 2) (Aspergillus niger; 1000 ppm imazalil agent in BAL grout, Aspergillus niger) | Disruption to fungal encroachment by grout sample (FIG. 3) (Aspergillus niger; 2000 ppm imazalil agent in BAL grout, Aspergillus niger)
1 | C=CCOC(Cn1ccnc1)c1ccc(Cl)cc1Cl.O=S(=O)(O)O (racemic) [Imazalil Sulfate, (±)-1-[2-(2,4-dichlorophenyl)-2-(2-propenyloxy)ethyl]-1H-imidazole sulfate] | 5 | 5 | 5 | no growth | no growth | 5 | 6 | 6 | – | – | – | –
2 | C=CCOC(Cn1ccnc1)c1ccc(Cl)cc1Cl (racemic) [imazalil agent, (±)-1-[2-(2,4-dichlorophenyl)-2-(2-propenyloxy)ethyl]-1H-imidazole] | – | – | – | – | – | – | – | – | ≥ 160 | no discoloration | strong resistance to fungal attack | significant disruption to fungal encroachment
